Test results published in ChEMBL document CHEMBL3137667, “[Drug-induced liver injury; fourteenth updated edition of the bibliographic database of liver injuries and related drugs]” (Gastroenterol Clin Biol, 2004).

Key:
[1] = human, serum
[2] = human
[3] = human; remark: listed apart in the source
[4] = human, serum; remark: listed apart in the source
[5] = human; remark: listed apart in the source
[6] = human; remark: listed apart in the source
[7] = human; remark: listed apart in the source
[8] = human; remark: listed apart in the source
[9] = human; remark: listed apart in the source
[10] = human; remark: listed apart in the source
[11] = Times to onset, minimal and maximal, observed in the indexed observations. [column 'DELAI' in source]; settings: human
[12] = Highest frequency of acute liver toxicity observed during clinical trials, expressed as a percentage. [column '% AIGUE' in source]; settings: human
[13] = human; remark: listed apart in the source
[14] = human, serum, 4383 h
[15] = Highest frequency of moderate liver toxicity observed during clinical trials, expressed as a percentage. [column '% BIOL' in source]; settings: human
[16] = Proposed mechanism(s) of liver damage. [column 'MEC' in source]; settings: human
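For Hepatotoxicity (association with vascular disease) in this document: count of indexed literature references reporting vascular liver injury in humans, e.g. peliosis hepatitis, hepatic veno-occlusive disease or Budd-Chiari syndrome.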
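For Hepatotoxicity (benign tumour) in this document: value is a count of indexed literature references citing a benign tumour confirmed by histopathology.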
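For Hepatotoxicity (choleostasis) in this document: human cholestatic liver injury, shown by histopathology or by peak ALT or AST elevation over alkaline phosphatase ratio below 2, value counts indexed literature reports.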
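For Hepatotoxicity (chronic liver disease) in this document: chronic liver injury confirmed by histopathology or persistently raised serum aminotransferase activity beyond 6 months, value given as the count of indexed literature references.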
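For Hepatotoxicity (cirrhosis) in this document: value is a count of indexed literature references reporting cirrhosis confirmed by histopathology.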
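For Hepatotoxicity (cytolytic) in this document: human cytolytic liver injury, shown by histopathology or by a ratio above 5 of peak ALT or AST elevation to alkaline phosphatase elevation, value counts indexed references.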
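For Hepatotoxicity (granulomatous hepatitis) in this document: value is a count of indexed literature references reporting granulomatous liver disease confirmed by histopathology.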
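For Hepatotoxicity (malignant tumour) in this document: malignant tumour confirmed by histopathology, value gives the count of indexed literature references reporting it.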
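For Hepatotoxicity (severe hepatitis) in this document: human clinical data: severe hepatitis, meaning potentially life-threatening liver failure or clinically observed cases, the value counts how many indexed literature references report it.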
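For Hepatotoxicity (steatosis) in this document: steatosis confirmed by histopathology, value is the count of indexed references.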

Row | Compound | Hepatotoxicity (acute) [1] | Hepatotoxicity (benign tumour) [2] | Hepatotoxicity (severe hepatitis) [3] | Hepatotoxicity (moderate) [4] | Hepatotoxicity (choleostasis) [5] | Hepatotoxicity (malignant tumour) [6] | Hepatotoxicity (association with vascular disease) [7] | Hepatotoxicity (cytolytic) [8] | Hepatotoxicity (cirrhosis) [9] | Hepatotoxicity (granulomatous hepatitis) [10] | Hepatotoxicity (time to onset) [11] | Hepatotoxicity (acute) [12] [%] | Hepatotoxicity (steatosis) [13] | Hepatotoxicity (chronic liver disease) [14] | Hepatotoxicity (moderate) [15] [%] | Hepatotoxicity (mechanism) [16] | also measured
1 | CN(C)[C@@H]1C(O)=C(C(N)=O)C(=O)[C@@]2(O)C(O)=C3C(=O)c4c(O)ccc(Cl)c4[C@@H](O)[C@H]3C[C@@H]12 [DEMECLOCYCLINE] | 1 | 0 | 2 | 0 | 0 | 0 | 0 | 1 | 0 | 0 | 2 days - 2 months | 0 | 1 | 0 | 0 | Dose-dependant | –
2 | CCC(C)n1ncn(-c2ccc(N3CCN(c4ccc(OC[C@H]5CO[C@](Cn6cncn6)(c6ccc(F)cc6F)O5)cc4)CC3)cc2)c1=O (stereo partly drawn) [SAPERCONAZOLE] | 0 | 0 | 0 | 1 | 0 | 0 | 0 | 0 | 0 | 0 | 8 weeks | 0 | 0 | 0 | 0 | Dose-dependant | –
3 | BCG VACCINE | 6 | 0 | 0 | 7 | 2 | 0 | 0 | 2 | 0 | 32 | 1 hour - 2 years | 0.9 | 0 | 0 | 10 | Allergic | –
4 | O=C(O)C1=C(CSc2nnnn2CS(=O)(=O)O)CS[C@@H]2[C@H](NC(=O)[C@H](O)c3ccccc3)C(=O)N12 [CEFONICID] | 2 | 0 | 0 | 10 | 0 | 0 | 0 | 0 | 0 | 0 | 4 days - 20 days | 5.9 | 0 | 0 | 29 | Allergic | –
5 | STIBOGLUCONATE | 2 | 0 | 0 | 12 | 0 | 0 | 0 | 1 | 0 | 0 | 1 week - 3 weeks | 2 | 0 | 0 | 61.5 | Dose-dependant | –
6 | NADROPARIN CALCIUM | 0 | 0 | 0 | 8 | 0 | 0 | 0 | 0 | 0 | 0 | 5 days - 1 week | 0 | 0 | 0 | 66.7 | Dose-dependant | –
7 | Nc1nc(=O)[nH]cc1F [FLUCYTOSINE] | 5 | 0 | 2 | 22 | 3 | 0 | 0 | 3 | 0 | 0 | 2 weeks - 2 months | 2 | 0 | 0 | 55 | Dose-dependant | –
8 | O=C1Nc2ccc(Cl)cc2[C@@](C#CC2CC2)(C(F)(F)F)O1 [EFAVIRENZ] | 8 | 0 | 4 | 2 | 2 | 0 | 0 | 8 | 0 | 0 | 10 days - 4 weeks | 10.9 | 0 | 0 | 18.8 | Allergic | –
9 | CO[C@H]1/C=C/O[C@@]2(C)Oc3c(C)c(O)c4c(c3C2=O)C2=NC3(CCN(CC(C)C)CC3)NC2=C(NC(=O)/C(C)=C\C=C\[C@H](C)[C@H](O)[C@@H](C)[C@@H](O)[C@@H](C)[C@H](OC(C)=O)[C@@H]1C)C4=O [RIFABUTIN] | 2 | 0 | – | 6 | – | 0 | 0 | – | 0 | – | 2 weeks - 11 weeks | – | 0 | 0 | – | – | Hepatotoxicity (severe hepatitis) ([3]; Liver): 1; Hepatotoxicity (choleostasis) ([5]; Liver): 0; Hepatotoxicity (cytolytic) ([8]; Liver): 1; Hepatotoxicity (granulomatous hepatitis) ([10]; Liver): 0; Hepatotoxicity (acute) ([12]; Liver): 0%; Hepatotoxicity (moderate) ([15]; Liver): 7.1%; Hepatotoxicity (mechanism) ([16]; Liver): Dose-dependant
10 | CNNCc1ccc(C(=O)NC(C)C)cc1 [PROCARBAZINE] | 2 | 0 | 0 | 0 | 0 | 1 | 0 | 2 | 0 | 1 | 2 weeks - 3 weeks | 1 | 0 | 0 | 0 | Allergic | –
11 | COc1ccc(C(CN(C)C)C2(O)CCCCC2)cc1 (stereo not drawn) [VENLAFAXINE] | 4 | 0 | 0 | 3 | 1 | 0 | 0 | 3 | 0 | 0 | 12 days - 6 months | 0 | 0 | 0 | 2.8 | Allergic | –
12 | CN1CCN(CCCN2c3ccccc3Sc3ccccc32)CC1 [PERAZINE] | 3 | 0 | 0 | 5 | 1 | 0 | 0 | 2 | 0 | 0 | 1.5 months - 1 year | 0.3 | 0 | 0 | 43 | Dose-dependant | –
13 | CC(=O)CCC1C(=O)N(c2ccccc2)N(c2ccccc2)C1=O [KEBUZONE] | 4 | 0 | 0 | 1 | 3 | 0 | 0 | 3 | 0 | 0 | 1 week - 1 month | 2.7 | 0 | 0 | 26.7 | Allergic | –
